Test results published in patent publication US20090155387A1, “STABLE PHARMACEUTICAL COMPOSITION COMPRISING BETA-LACTAM ANTIBIOTIC AND ION-CHELATING AGENT” (priority 2006, published 2009).

Assay: Amounts of β-lactam antibiotic, β-lactamase inhibitor and aminoglycoside antibiotic in solution over time (reverse-phase LC/HPLC)
Assay type: physicochemical
Procedure: The amounts of β-lactam antibiotics and β-lactamase inhibitor were determined using C18 reverse-phase LC and UV-VIS detector (Tianjin […] Co., Ltd., analysis method No. HM-K-03). The content of aminoglycoside antibiotics was measured using reverse-phase HPLC and evaporation-light-scattering detector (ELSD detector) (Tianjin […] Co., Ltd., analysis method No. HM-K-08). The amount of antibiotic component at each time point was expressed as a percentage with respect to the amount at the initial time. The relative amount of each antibiotic component in the composition at each time point was expressed as peak area ratio with respect to the corresponding peak area of an external standard.

## CC1(C)[C@H](C(=O)O)N2C(=O)C[C@H]2S1(=O)=O [Sulbactam sodium]
In Example 4 solution (no EDTA), pH 6.75, room temperature, 0 h
  amount (percentage of initial amount): 101.4%
In Example 4 solution (no EDTA), pH 6.75, room temperature, 1 h
  amount (percentage of initial amount): 101.4%
In Example 4 solution (no EDTA), pH 6.75, room temperature, 2 h
  amount (percentage of initial amount): 101.5%
In Example 4 solution (no EDTA), pH 6.75, room temperature, 4 h
  amount (percentage of initial amount): 109.7%
In Example 4 solution (no EDTA), pH 6.75, room temperature, 6 h
  amount (percentage of initial amount): 103.2%
In Example 5 solution, pH 6.75, room temperature, 0 h
  amount (percentage of initial amount): 101.4%
In Example 5 solution, pH 6.75, room temperature, 1 h
  amount (percentage of initial amount): 101.4%
In Example 5 solution, pH 6.75, room temperature, 2 h
  amount (percentage of initial amount): 101.5%
In Example 5 solution, pH 6.75, room temperature, 4 h
  amount (percentage of initial amount): 109.7%
In Example 5 solution, pH 6.75, room temperature, 6 h
  amount (percentage of initial amount): 103.2%
In Example 6 solution, pH 6.5, room temperature, 0 h
  amount (percentage of initial amount): 99.62%
In Example 6 solution, pH 6.5, room temperature, 1 h
  amount (percentage of initial amount): 100.4%
In Example 6 solution, pH 6.5, room temperature, 2 h
  amount (percentage of initial amount): 100.2%
In Example 6 solution, pH 6.5, room temperature, 4 h
  amount (percentage of initial amount): 100.2%
In Example 7 solution, pH 6.75, room temperature, 0 h
  amount (percentage of initial amount): 96.84%
In Example 7 solution, pH 6.75, room temperature, 1 h
  amount (percentage of initial amount): 94.43%
In Example 7 solution, pH 6.75, room temperature, 2 h
  amount (percentage of initial amount): 93.35%
In Example 7 solution, pH 6.75, room temperature, 4 h
  amount (percentage of initial amount): 93.23%
In Example 7 solution, pH 6.75, room temperature, 6 h
  amount (percentage of initial amount): 92.13%
In Example 7 solution, pH 6.75, room temperature, 8 h
  amount (percentage of initial amount): 93.38%
In Example 12 solution (no aminoglycoside) from freeze-dried powder stored 7 days at 0° C., redissolved, 0 h
  amount (percentage of initial amount): 98.5%
In Example 12 solution (no aminoglycoside) from freeze-dried powder stored 7 days at 0° C., redissolved, 1 h
  amount (percentage of initial amount): 98.7%
In Example 12 solution (no aminoglycoside) from freeze-dried powder stored 7 days at 0° C., redissolved, 2 h
  amount (percentage of initial amount): 98.2%
In Example 12 solution (no aminoglycoside) from freeze-dried powder stored 7 days at 0° C., redissolved, 4 h
  amount (percentage of initial amount): 95.6%
In Example 12 solution (no aminoglycoside) from freeze-dried powder stored 7 days at 0° C., redissolved, 6 h
  amount (percentage of initial amount): 94.0%
In Example 12 solution (no aminoglycoside) from freeze-dried powder stored 7 days at 0° C., redissolved, 8 h
  amount (percentage of initial amount): 96.1%
In Example 14 solution, pH 6.5, room temperature, 0 h
  amount (percentage of initial amount): 92.44%
In Example 14 solution, pH 6.5, room temperature, 1 h
  amount (percentage of initial amount): 91.27%
In Example 14 solution, pH 6.5, room temperature, 2 h
  amount (percentage of initial amount): 90.78%
In Example 14 solution, pH 6.5, room temperature, 4 h
  amount (percentage of initial amount): 88.38%
In Example 14 solution, pH 6.5, room temperature, 6 h
  amount (percentage of initial amount): 86.86%
In Example 15 solution, pH 6.5, room temperature, 0 h
  amount (percentage of initial amount): 99.50%
In Example 15 solution, pH 6.5, room temperature, 1 h
  amount (percentage of initial amount): 96.28%
In Example 15 solution, pH 6.5, room temperature, 2 h
  amount (percentage of initial amount): 102.5%
In Example 15 solution, pH 6.5, room temperature, 4 h
  amount (percentage of initial amount): 95.78%
In Example 15 solution, pH 6.5, room temperature, 6 h
  amount (percentage of initial amount): 70.74%
In Example 17 solution, pH 6.5, room temperature, 0 h
  amount (percentage of initial amount): 114.3%
In Example 17 solution, pH 6.5, room temperature, 1 h
  amount (percentage of initial amount): 95.83%
In Example 17 solution, pH 6.5, room temperature, 2 h
  amount (percentage of initial amount): 93.75%
In Example 17 solution, pH 6.5, room temperature, 4 h
  amount (percentage of initial amount): 93.78%
In Example 17 solution, pH 6.5, room temperature, 6 h
  amount (percentage of initial amount): 95.65%
In Example 17 solution, pH 6.5, room temperature, 8 h
  amount (percentage of initial amount): 101.0%
In Example 18 solution (2.5% fructose), pH 6.5, room temperature, 0 h
  amount (percentage of initial amount): 98.07%
In Example 18 solution (2.5% fructose), pH 6.5, room temperature, 1 h
  amount (percentage of initial amount): 98.13%
In Example 18 solution (2.5% fructose), pH 6.5, room temperature, 2 h
  amount (percentage of initial amount): 72.96%
In Example 18 solution (2.5% fructose), pH 6.5, room temperature, 4 h
  amount (percentage of initial amount): 95.16%
In Example 18 solution (2.5% fructose), pH 6.5, room temperature, 6 h
  amount (percentage of initial amount): 99.65%
In Example 18 solution (2.5% fructose), pH 6.5, room temperature, 8 h
  amount (percentage of initial amount): 104.9%
In Example 19 solution, pH 6.75, room temperature, 0 h
  amount (percentage of initial amount): 108.8%
In Example 19 solution, pH 6.75, room temperature, 1 h
  amount (percentage of initial amount): 109.6%
In Example 19 solution, pH 6.75, room temperature, 2 h
  amount (percentage of initial amount): 111.7%
In Example 19 solution, pH 6.75, room temperature, 4 h
  amount (percentage of initial amount): 115.9%
In Example 19 solution, pH 6.75, room temperature, 6 h
  amount (percentage of initial amount): 120.7%
In Example 19 solution, pH 6.75, room temperature, 8 h
  amount (percentage of initial amount): 125.6%
In Example 20 solution (no EDTA), pH 6.75, room temperature, 0 h
  amount (percentage of initial amount): 105.6%
In Example 20 solution (no EDTA), pH 6.75, room temperature, 1 h
  amount (percentage of initial amount): 112.2%
In Example 20 solution (no EDTA), pH 6.75, room temperature, 2 h
  amount (percentage of initial amount): 112.6%
In Example 20 solution (no EDTA), pH 6.75, room temperature, 4 h
  amount (percentage of initial amount): 118.5%
In Example 20 solution (no EDTA), pH 6.75, room temperature, 6 h
  amount (percentage of initial amount): 123.3%
In Example 20 solution (no EDTA), pH 6.75, room temperature, 8 h
  amount (percentage of initial amount): 127.1%
In Example 22 solution (2.5% fructose), pH 6.0, room temperature, 0 h
  amount (percentage of initial amount): 101.4%
In Example 22 solution (2.5% fructose), pH 6.0, room temperature, 1 h
  amount (percentage of initial amount): 107.6%
In Example 22 solution (2.5% fructose), pH 6.0, room temperature, 2 h
  amount (percentage of initial amount): 101.3%
In Example 22 solution (2.5% fructose), pH 6.0, room temperature, 4 h
  amount (percentage of initial amount): 104.4%
In Example 22 solution (2.5% fructose), pH 6.0, room temperature, 6 h
  amount (percentage of initial amount): 104.4%
In Example 22 solution (2.5% fructose), pH 6.0, room temperature, 8 h
  amount (percentage of initial amount): 91.39%
In Example 24 solution, pH 6.75, room temperature, 0 h
  amount (percentage of initial amount): 90.06%
In Example 24 solution, pH 6.75, room temperature, 1 h
  amount (percentage of initial amount): 94.26%
In Example 24 solution, pH 6.75, room temperature, 2 h
  amount (percentage of initial amount): 100.5%
In Example 24 solution, pH 6.75, room temperature, 4 h
  amount (percentage of initial amount): 89.94%
In Example 24 solution, pH 6.75, room temperature, 6 h
  amount (percentage of initial amount): 94.26%
In Example 24 solution, pH 6.75, room temperature, 8 h
  amount (percentage of initial amount): 105.0%
In Example 25 solution, pH 6.75, room temperature, 0 h
  amount (percentage of initial amount): 99.32%
In Example 25 solution, pH 6.75, room temperature, 1 h
  amount (percentage of initial amount): 107.5%
In Example 25 solution, pH 6.75, room temperature, 2 h
  amount (percentage of initial amount): 97.91%
In Example 25 solution, pH 6.75, room temperature, 4 h
  amount (percentage of initial amount): 83.79%
In Example 25 solution, pH 6.75, room temperature, 6 h
  amount (percentage of initial amount): 94.52%
In Example 25 solution, pH 6.75, room temperature, 8 h
  amount (percentage of initial amount): 105.5%
